One substance from patent US20230095689A1, “METHOD OF CULTURING RECONSTRUCTED HUMAN SKIN” (Korea University Research and Business Foundation, priority 2021, published 2023) can be followed below.

For this data set, the system named is reconstructed human skin produced according to Example 1. Description: Evaluation of skin barrier function of reconstructed human skin with liquid surfactant (MTT, OECD Test Guideline 439). The class given is cell-based. The protocol: In order to confirm the skin barrier function of the reconstructed human skin produced according to the present invention, the skin barrier function was evaluated using the reconstructed human skin produced in the culture vessel having the inner wall coated with dopamine in Example 1. The skin barrier function was evaluated in a manner in which cell viability relative to an untreated control depending on the treatment time with 1% Triton X-100 was measured, and ET50 (Effective Time 50%), which is the time taken to reach the cell viability of 50%, was determined, according to the barrier evaluation method presented as a performance standard in OECD Test Guideline 439. […] The formazan dye thus formed was dissolved in 2 ml of 2-propanol, 200 μl thereof was placed in each of two wells of a 96-well plate, and optical density at a wavelength of 570 nm was measured using a plate reader, and each optical density of treated group was compared to those in untreated control, thereby calculating relative cell viability, and ET50 (Effective Time 50), which is the time taken to reach the cell viability of 50%, was determined.

Turning to Triton X-100, the relative cell viability result (1% Triton X-100 for 2, 5, 8 and 20 hours, MTT relative to untreated control) is listed as “decreased depending on the treatment time”. In addition, under “200 μl of 1% Triton X-100 solution on upper surface, MTT, optical density at 570 nm relative to untreated control”, the “ET50 (Effective Time 50), time taken to reach the cell viability of 50%” value was “about 4.5 hours”.
